Measured values: ChEMBL document CHEMBL1201862, “PubChem BioAssay data set” (2004)
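A five-concentration, 48-hour dose response in 96-well plates underlies each endpoint, interpolated linearly between surrounding concentrations. The concentration for 50% growth inhibition is given as GI50.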 The source made the active and inactive calls. Rule as the data show it: active = GI50 up to about 1.1 µM and inactive = higher.

Assays:
Assay in all cases: NCI tumour cell line growth inhibition, 48 h
786-0 = test system: 786-0
ACHN = test system: ACHN
HCC 2998 = test system: HCC 2998
HOP-62 = test system: HOP-62
HOP-92 = test system: HOP-92
OVCAR-8 = test system: OVCAR-8
RXF 393 = test system: RXF 393
SF-268 = test system: SF-268
SK-MEL-2 = test system: SK-MEL-2
SK-OV-3 = test system: SK-OV-3
SN12C = test system: SN12C
SNB-75 = test system: SNB-75
SW-620 = test system: SW-620
UACC-257 = test system: UACC-257
CAKI-1 = test system: CAKI-1

Measured: GI50

Cc1cc2c(C)n(Cc3ccccc3Cl)nc2c(C(=O)O)c1C
inactive: 786-0 > 100 µM | ACHN > 100 µM | HCC 2998 > 100 µM | HOP-62 > 100 µM | HOP-92 > 100 µM | OVCAR-8 > 100 µM | RXF 393 > 100 µM | SF-268 > 100 µM | SK-MEL-2 > 100 µM | SK-OV-3 > 100 µM | SN12C > 100 µM | SNB-75 > 100 µM | SW-620 > 100 µM | UACC-257 > 100 µM

O=C1c2ccccc2C2C1N2C(=O)C(F)(F)F (centres undefined)
inactive: 786-0 > 100 µM | ACHN > 100 µM | CAKI-1 > 100 µM | HOP-62 > 100 µM | HOP-92 > 100 µM | OVCAR-8 > 100 µM | RXF 393 > 100 µM | SF-268 > 100 µM | SK-MEL-2 > 100 µM | SK-OV-3 > 100 µM | SN12C > 100 µM | SNB-75 > 100 µM | SW-620 > 100 µM | UACC-257 > 100 µM

COC(=O)CC1NC(=O)C1C(C)(OC)OC (centres undefined)
inactive: 786-0 > 100 µM | ACHN > 100 µM | HCC 2998 > 100 µM | HOP-62 > 100 µM | OVCAR-8 > 100 µM | RXF 393 > 100 µM | SF-268 > 100 µM | SK-MEL-2 > 100 µM | SN12C > 100 µM | SNB-75 30.3 µM | SW-620 > 100 µM | UACC-257 > 100 µM

Cc1ccc(S(=O)(=O)OCCn2cnc3nc(NC(=O)c4ccccc4)[nH]c(=O)c32)cc1
inactive: 786-0 > 100 µM | ACHN > 100 µM | CAKI-1 > 100 µM | HOP-62 > 100 µM | HOP-92 > 100 µM | OVCAR-8 > 100 µM | RXF 393 > 100 µM | SF-268 > 100 µM | SK-MEL-2 > 100 µM | SK-OV-3 > 100 µM | SN12C > 100 µM | SNB-75 > 100 µM | SW-620 > 100 µM | UACC-257 > 100 µM

O=C(NC(=O)c1cn(CCN2CCN(C(=O)NCCCCCCNC(=O)N3CCN(CCn4cc(C(=O)NC(=O)OCc5ccccc5)c(=O)[nH]c4=O)CC3)CC2)c(=O)[nH]c1=O)OCc1ccccc1
inactive: 786-0 > 100 µM | ACHN > 100 µM | CAKI-1 > 100 µM | HOP-62 > 100 µM | HOP-92 > 100 µM | OVCAR-8 > 100 µM | RXF 393 > 100 µM | SK-OV-3 > 100 µM | SN12C > 100 µM | SNB-75 60.8 µM | SW-620 > 100 µM | UACC-257 > 100 µM

CC(=O)O/N=C/c1ncccc1OC(C)=O
inactive: 786-0 > 100 µM | ACHN > 100 µM | CAKI-1 > 100 µM | HOP-62 > 100 µM | HOP-92 > 100 µM | OVCAR-8 > 100 µM | RXF 393 > 100 µM | SF-268 > 100 µM | SK-MEL-2 > 100 µM | SK-OV-3 > 100 µM | SN12C > 100 µM | SNB-75 > 100 µM | SW-620 > 100 µM | UACC-257 > 100 µM

COC1OC2COC(c3ccccc3)OC2C(O)C1Br (centres undefined)
inactive: 786-0 > 100 µM | ACHN > 100 µM | CAKI-1 > 100 µM | HCC 2998 > 100 µM | HOP-62 > 100 µM | HOP-92 > 100 µM | OVCAR-8 > 100 µM | RXF 393 > 100 µM | SF-268 > 100 µM | SN12C > 100 µM | SW-620 > 100 µM | UACC-257 > 100 µM

CC1=C(c2ccccc2)CON(c2ccccc2)C1
inactive: 786-0 36.8 µM | ACHN 30.2 µM | CAKI-1 39.6 µM | HCC 2998 67.5 µM | HOP-62 66.2 µM | OVCAR-8 33.5 µM | RXF 393 16.9 µM | SF-268 39.9 µM | SK-MEL-2 26.6 µM | SK-OV-3 > 100 µM | SN12C 53.6 µM | SW-620 39.4 µM | UACC-257 40.8 µM

O=C1c2ccccc2C(=O)N1C/C=C/CO
inactive: 786-0 > 100 µM | ACHN > 100 µM | CAKI-1 > 100 µM | HCC 2998 > 100 µM | HOP-62 > 100 µM | OVCAR-8 > 100 µM | RXF 393 > 100 µM | SF-268 > 100 µM | SK-MEL-2 > 100 µM | SK-OV-3 > 100 µM | SN12C > 100 µM | SNB-75 > 100 µM | SW-620 > 100 µM | UACC-257 > 100 µM

C1=CC=C2NCCC/N=C3/C=CC=CC=C3NCCC/N=C\2C=C1
inactive: 786-0 > 100 µM | ACHN > 100 µM | HCC 2998 > 100 µM | HOP-62 > 100 µM | HOP-92 > 100 µM | OVCAR-8 > 100 µM | SF-268 > 100 µM | SK-MEL-2 > 100 µM | SK-OV-3 > 100 µM | SN12C > 100 µM | SNB-75 > 100 µM | SW-620 > 100 µM

Cc1cc2c(=O)cc(-c3ccc(Cl)cc3Cl)oc2c(C(=O)O)c1C
inactive: 786-0 > 100 µM | ACHN > 100 µM | CAKI-1 > 100 µM | OVCAR-8 > 100 µM | RXF 393 > 100 µM | SF-268 > 100 µM | SK-MEL-2 > 100 µM | SK-OV-3 > 100 µM | SN12C > 100 µM | SNB-75 > 100 µM | SW-620 > 100 µM | UACC-257 > 100 µM

O=C1CC2Sc3ccccc3N=C2N1c1ccc(Cl)cc1Cl (centres undefined)
inactive: 786-0 30.3 µM | ACHN 54.3 µM | HCC 2998 > 100 µM | HOP-62 > 100 µM | HOP-92 30.3 µM | OVCAR-8 59.3 µM | RXF 393 93.5 µM | SF-268 40.9 µM | SK-MEL-2 46.6 µM | SN12C 39.9 µM | SNB-75 99.1 µM | SW-620 46.2 µM | UACC-257 > 100 µM

CC(=O)Nc1ccc(C(=O)N2N=C(C)/C(=C/c3cccc([N+](=O)[O-])c3)C2=O)cc1
inactive: 786-0 > 100 µM | ACHN > 100 µM | CAKI-1 > 100 µM | HCC 2998 > 100 µM | HOP-62 > 100 µM | OVCAR-8 > 100 µM | SF-268 > 100 µM | SN12C > 100 µM | SNB-75 > 100 µM | SW-620 > 100 µM | UACC-257 > 100 µM

CN1N=C2c3ccccc3CC[C@H]2C1c1cccc(O)c1 (some centres undefined)
inactive: 786-0 > 100 µM | ACHN > 100 µM | HCC 2998 > 100 µM | HOP-62 > 100 µM | HOP-92 > 100 µM | OVCAR-8 > 100 µM | RXF 393 77.4 µM | SF-268 > 100 µM | SK-MEL-2 > 100 µM | SK-OV-3 > 100 µM | SN12C > 100 µM | SW-620 > 100 µM | UACC-257 > 100 µM

COC1CC2C3/C(=N/Nc4ccc([N+](=O)[O-])cc4[N+](=O)[O-])CCC2(C)C3C1 (centres undefined)
inactive: 786-0 > 10 µM | ACHN > 10 µM | CAKI-1 > 10 µM | HCC 2998 > 10 µM | HOP-62 > 10 µM | HOP-92 > 10 µM | OVCAR-8 > 100 µM | SF-268 > 100 µM | SK-MEL-2 > 10 µM | SK-OV-3 > 10 µM | SN12C > 10 µM | SNB-75 > 10 µM | SW-620 > 10 µM | UACC-257 > 100 µM
